Test results reported in patent publication US20250248209A1, “LIGHT-EMITTING DEVICE” (SEMICONDUCTOR ENERGY LABORATORY CO., LTD., priority 2024, published 2025).
Values after ≈ are worked out from the molar mass of the structure shown. “Also recorded” adds a separate entry of the source.

Assay: Solubility test of each organic compound in pure water by LC-MS analysis
Assay type: physicochemical
Conditions: 1 mg compound in 1 mL water, ultrasonic waves five minutes, filtered, evaluated from LC peak area; for solubility at 5 min: pure water, thermodynamic from solid
Method: In the LC-MS analysis, liquid chromatography (LC) separation was carried out with ACQUITY UPLC (Waters Corporation), and mass spectrometry (MS) analysis was carried out with Xevo G2 Tof MS (Waters Corporation). Note that this analysis was performed on Hid2Phen, Pyrrd-Phen, and PrdP2Phen. ACQUITY UPLC BEH C8 (2.1×100 mm, 1.7 μm) was used as a column for the LC separation. Acetonitrile was used for Mobile Phase A and a 0.1% aqueous solution of formic acid was used for Mobile Phase B. The injection amount of the sample was 5.0 μL. Note that in the analysis, the wavelength of a photodiode array detector was set to 263 nm±1 nm.
Then, in a 5-mL sample bottle, 1 mg of each organic compound was put and 1 mL of water was added thereto. The mixture was irradiated with ultrasonic waves for five minutes. The mixture was filtered through a membrane filter to remove the solid. The resulting solution was subjected to the LC-MS analysis to create a chromatogram. The solubility was evaluated from the area of a peak in the chromatograph.

Row | solubility at 5 min | SMILES | Solubility in pure water
1 |  | c1cc(-c2ccc(N3CCCC3)cc2)c2ccc3c(-c4ccc(N5CCCC5)cc4)ccnc3c2n1 [PrdP2Phen, 4,7-bis[4-(1-pyrrolidinyl)phenyl]-1,10-phenanthroline] | below the lower detection limit; also recorded: extremely low solubility in pure water; also recorded: Not detected
2 | ≥ 50 µg/mL | c1cc(N2CCCC2)c2ccc3c(N4CCCC4)ccnc3c2n1 [Pyrrd-Phen, 4,7-di-1-pyrrolidinyl-1,10-phenanthroline] | 
3 | 5.5 µg/mL (≈ 12.9 µM) | c1cc(N2CC3CCCCC3C2)c2ccc3c(N4CC5CCCCC5C4)ccnc3c2n1 (stereo not drawn) [Hid2Phen, 4,7-di(2,3,3a,4,5,6,7,7a-octahydro-^1H-isoindol-2-yl)-1,10-phenanthroline] | 
